BindingDB's records for doi:10.1038/sj.bjp.0705964 (Johnson & Johnson Pharmaceutical Research and Development, 2004)

Assays:
Histamine H4 receptor = Histamine H4 receptor (Homo sapiens, UniProt Q9H3N8)
Histamine H2 receptor = Histamine H2 receptor (Homo sapiens, UniProt P25021)
Hrh3 protein = Hrh3 protein (Rattus norvegicus, UniProt Q5PPG3)
Sequence of Hrh3 protein (Q5PPG3 whole entry): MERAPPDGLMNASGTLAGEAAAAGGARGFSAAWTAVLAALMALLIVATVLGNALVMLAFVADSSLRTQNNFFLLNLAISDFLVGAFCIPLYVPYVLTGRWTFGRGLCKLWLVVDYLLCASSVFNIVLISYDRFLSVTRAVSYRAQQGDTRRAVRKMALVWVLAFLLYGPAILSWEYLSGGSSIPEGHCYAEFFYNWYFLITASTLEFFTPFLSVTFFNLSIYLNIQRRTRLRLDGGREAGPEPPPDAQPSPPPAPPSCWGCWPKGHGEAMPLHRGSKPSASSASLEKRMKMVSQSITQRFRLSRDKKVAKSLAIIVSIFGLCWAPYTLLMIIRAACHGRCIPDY

Sequence of Histamine H2 receptor (P25021 whole entry): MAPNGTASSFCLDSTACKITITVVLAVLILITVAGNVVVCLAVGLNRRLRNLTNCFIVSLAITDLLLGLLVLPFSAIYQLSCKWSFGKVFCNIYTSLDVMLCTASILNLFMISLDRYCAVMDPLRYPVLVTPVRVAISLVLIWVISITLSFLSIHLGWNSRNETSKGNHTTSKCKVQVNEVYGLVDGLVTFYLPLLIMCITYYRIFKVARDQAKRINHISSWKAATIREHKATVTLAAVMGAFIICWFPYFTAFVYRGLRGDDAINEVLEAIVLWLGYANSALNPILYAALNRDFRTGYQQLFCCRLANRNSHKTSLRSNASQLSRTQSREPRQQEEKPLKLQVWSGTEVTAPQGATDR

Ki (Histamine H4 receptor): > 10 µM
Ki (Histamine H2 receptor): > 10 µM
Ki (Hrh3 protein): 0.00126 µM
Structure (SMILES): c1cc(OCCCN2CCCCC2)ccc1CN1CCCCC1 [1-(3-(4-(piperidin-1-ylmethyl)phenoxy)propyl)piperidine]
